# US20220125747A1, “APPLICATION OF ACTIVE INGREDIENT WGX50 IN ZANTHOXYLUM BUNGEANUM EXTRACT” (Shanghai Jiao Tong University, priority 2020, published 2022)
# Tests used:
# Format in all cases: cell-based
# [1] = tested on: keratinocytes; assay: cytotoxicity test based on keratinocytes (MTT); conditions: for Cell vitality Mean: keratinocytes, 24 hours, MTT
# Description: Embodiment 1, cytotoxicity test based on keratinocytes. Set up 8 concentration gradients, and set up 3 repeating holes under each concentration. At the same time, solvent control hole, zero adjustment hole (KC2500) and positive control hole (PC, 4% Dimethyl sulfoxide, DMSO) are set up in the experiment. After incubation for 24 hours, the cell viability is detected by MTT method, and the maximum safe concentration of cell administration is screened. The MTT test results are shown in Table 1, in which the GraphPad Prism Program software is used for mapping, and T-test statistical analysis is used among all groups. P-value<0.05 indicates significant difference, and P-value<0.01 indicates extremely significant difference. According to the results of MTT assay, the concentration near the inflection point of cell vitality is selected, and after incubation and culture for 24 hours, the cell morphology is observed under the inverted microscope and photographed (20×), and the morphological detection results are shown in FIG. 2.
# [2] = tested on: melanocytes; assay: cytotoxicity test based on melanocytes (MTT); conditions: for Cell vitality Mean: melanocytes, 24 hours
# Description: Embodiment 2, cytotoxicity test based on melanocytes. Set up 8 concentration gradients, and set up 3 repeating holes under each concentration. At the same time, solvent control well, Medium-254 well and positive control well (PC, 8% DMSO) are set up in the experiment. After incubation for 24 hours, the cell viability is detected by MTT method, and the maximum safe concentration of cell administration is screened.
# [3] = tested on: TNFα; assay: anti-inflammatory test of keratinocytes stimulated by UVB, TNFα ELISA; conditions: for TNFα Decreased ratio (compared to NC) / TNFα Average concentration: 24 h; for TNFα Average concentration: ELISA of culture supernatant
# From the text: (§1) 3. Anti-inflammatory test based on UVB (ultraviolet radiation b) stimulation of keratinocytes. The blank control (oil-soluble), solvent control (oil-soluble), positive control and sample groups are grouped in the experiment. The detection indexes are TNFα (a pro-inflammatory factors, the NF-κB signaling pathway mediates and initiates the transcription of TNFα (abbreviation for tumor necrosis factor alpha), and after TNFα is synthesized, it binds to its receptor and in turn activates the NF-κB signaling pathway) and IL1-α (a pro-inflammatory factor being non-hydrophobic polypeptide, which is secreted out of cells after cell membrane damage, and then the pro-inflammatory factor binds to its corresponding receptor IL1R and activates NF-κB to induce inflammatory cascade reaction), the detection and analysis are performed according to the operating manual of the TNFα and IL1-α kits.
# Embodiment 5, anti-inflammatory test of keratinocytes stimulated by UVB.
# (§2) TNFα and IL1-α expression detection process: after 24 hours of incubation, the cell culture supernatant is collected, and the detection and analysis are performed according to the operating instructions of the TNFα and IL1-α kit. When using the T-Test method for statistical analysis, the NC group is compared with the BC group, and the significance is indicated by #, P-value<0.05 is indicated as #, P-value<0.01 is indicated as ##; sample group and positive control group are compared with NC group, and significance is represented by *, P-value<0.05 is represented by *, P-value<0.01 is represented by * *.
# [4] = tested on: IL-1α; assay: anti-inflammatory test of keratinocytes stimulated by UVB, IL-1α ELISA; conditions: for IL-1α Decreased ratio (compared to NC) / IL-1α Average concentration: 24 h; for IL-1α Average concentration: ELISA of culture supernatant
# From the text: as §1, §2
# [5] = tested on: Claudin-1; assay: moisturizing gene test based on keratinocytes (qRT-PCR), Claudin-1; conditions: 5 μM, 24 h
# Description: (§3) 1. Moisturizing gene test based on keratinocytes. First, the cytotoxicity of keratinocytes is tested, and then the experimental design is carried out, and a blank control group and a sample group are set up. The detection indexes are AQP3 (aquaporin), CD44 (cell-surface glycoproteins), Filaggrin (protein), claudin-1 (tight junction protein) and HAS2 (hyaluronic acid synthetase). RNA extraction, reverse transcription and fluorescence quantitative PCR are carried out, and the results are calculated by 2^−ΔΔCT method.
# (§4) Embodiment 3, moisturizing gene test based on keratinocytes.
# (§5) Gene detection process: after incubation for 24 hours, the cells are sampled, and RNA extraction, reverse transcription and fluorescence quantitative PCR detection are carried out according to the kit instruction, and the results are calculated by 2^−ΔΔΔCT method. When statistical analysis is carried out by T-Test method, significance is represented by *, P-value<0.05 is represented by *, and P-value<0.01 is represented by * *.
# [6] = tested on: Filaggrin; assay: moisturizing gene test based on keratinocytes (qRT-PCR), Filaggrin; conditions: 5 μM, 24 h
# Description: as §3, §4, §5
# [7] = tested on: TRP-1; assay: whitening gene test based on melanocytes (qRT-PCR), TRP-1; conditions: 100 μM, 24 h
# Description: (§6) 2. Whitening gene test based on melanocytes. First, the cytotoxicity of melanocytes is tested, and then the experimental design is carried out, and a blank control group and a sample group are set up. The detection indexes are MC1R (melanocortin receptor), MITF (melanogenesis transcription factor), TYR (melanin synthesis and transport related gene) and TYP-1 (tyrosinase related protein). RNA extraction, reverse transcription and fluorescence quantitative PCR are carried out, and the results are calculated by 2^−ΔΔCT method.
# (§7) Embodiment 4, whitening gene test based on melanocytes.
# as §5, with “after” for “after incubation for”, “hours of incubation,” for “hours,”, “instructions,” for “instruction,”
# [8] = tested on: MITF; assay: whitening gene test based on melanocytes (qRT-PCR), MITF; conditions: 100 μM, 24 h
# Description: as §6, §7
# as §5, with “after” for “after incubation for”, “hours of incubation,” for “hours,”, “instructions,” for “instruction,”
# [9] = tested on: MC1R; assay: whitening gene test based on melanocytes (qRT-PCR), MC1R; conditions: 100 μM, 24 h
# Description: as §6, §7
# as §5, with “after” for “after incubation for”, “hours of incubation,” for “hours,”, “instructions,” for “instruction,”
# [10] = tested on: AQP3 gene; assay: moisturizing gene test based on keratinocytes (qRT-PCR), AQP3; conditions: 5 μM, 24 h
# Description: as §3, §4
# AQP3 aquaporin in the detection index, located on the cell membrane, has the function of transporting water and plays an important role in the process of skin moisturizing.
# as §5
# [11] = tested on: HAS2; assay: moisturizing gene test based on keratinocytes (qRT-PCR), HAS2; conditions: 5 μM, 24 h
# Description: as §3, §4, §5
# [12] = tested on: TYR; assay: whitening gene test based on melanocytes (qRT-PCR), TYR; conditions: 100 μM, 24 h
# Description: as §6, §7
# as §5, with “after” for “after incubation for”, “hours of incubation,” for “hours,”, “instructions,” for “instruction,”
# [13] = tested on: CD44; assay: moisturizing gene test based on keratinocytes (qRT-PCR), CD44; conditions: 5 μM, 24 h
# Description: as §3, §4, §5
# [14] = 5 μM, compared with the positive control group (so in the source), P-value<0.01
smiles,measurement,setting,value
"C[S+](C)[O-] [DMSO, Dimethyl sulfoxide, reference compound]",Cell vitality Mean,[1]; positive control 4% DMSO,30.27%
same,Cell vitality Mean,[2]; positive control 8% DMSO,24.23%
"C[C@@H]1C[C@H]2[C@@H]3CCC4=CC(=O)C=C[C@]4(C)[C@@]3(F)[C@@H](O)C[C@]2(C)[C@@]1(O)C(=O)CO [PC, Dexamethasone, reference compound]",TNFα Decreased ratio (compared to NC),[3]; 100 μg/mL,94%
same,TNFα Average concentration,[3]; 100 μg/mL,8.34 pg/mL
same,secretion of TNFα compared with the solvent control group,"[3]; 100 μg/mL, P-value<0.01",decreases significantly
same,IL-1α Decreased ratio (compared to NC),[4]; 100 μg/mL,29%
same,IL-1α Average concentration,[4]; 100 μg/mL,93.97 pg/mL
same,secretion of IL-1α compared with the solvent control group,"[4]; 100 μg/mL, P-Value<0.05",decreases significantly
"COc1ccc(CCNC(=O)/C=C/c2ccccc2)cc1OC [WGX50, (E)-N[2-(3,4-dimethoxyphenyl)ethyl]-3-phenylacrylamide]",cytotoxicity to keratinocytes,"[1]; in the concentration range of 5 μM, MTT and morphological results",no cytotoxicity
same,Cell vitality Mean,[1]; 0.5 μM,106.81%
same,Cell vitality Mean,[1]; 1 μM,93.72%
same,Cell vitality Mean,[1]; 2.5 μM,93.60%
same,Cell vitality Mean,[1]; 5 μM,93.01%
same,Cell vitality Mean,[1]; 10 μM,84.00%
same,Cell vitality Mean,[1]; 25 μM,66.77%
same,Cell vitality Mean,[1]; 50 μM,57.35%
same,Cell vitality Mean,[1]; 100 μM,50.36%
same,TNFα Decreased ratio (compared to NC),[3]; 5 μM,85%
same,TNFα Average concentration,[3]; 5 μM,18.97 pg/mL
same,secretion of TNFα,[3]; [14],decreases significantly
same,Claudin-1 Increased ratio (compared to BC),[5],17.50%
same,Claudin-1 gene expression Mean (2^−ΔΔCT),[5],1.182
same,Filaggrin Increased ratio (compared to BC),[6],7.20%
same,Filaggrin gene expression Mean (2^−ΔΔCT),[6],1.101
same,expression of TYP-1 gene in melanocytes compared with the blank control group,[7]; P-value<0.01,significantly inhibits
same,TRP-1 Increased ratio (compared to BC),[7]; qRT-PCR,70.10%
same,TRP-1 gene expression Mean (2^−ΔΔCT),[7]; qRT-PCR,0.304
same,expression of MITF gene in melanocytes compared with the blank control group,[8]; P-value<0.01,significantly inhibits
same,MITF Increased ratio (compared to BC),[8]; qRT-PCR,57.8%
same,MITF gene expression Mean (2^−ΔΔCT),[8]; qRT-PCR,0.432
same,expression of MC1R gene in melanocytes compared with the blank control group,[9]; P-value<0.01,significantly inhibits
same,MC1R Increased ratio (compared to BC),[9]; qRT-PCR,47.2%
same,MC1R gene expression Mean (2^−ΔΔCT),[9]; qRT-PCR,0.528
same,cytotoxicity to melanocytes,[2]; in the concentration range of 100 μM,no cytotoxicity
same,Cell vitality Mean,[2]; 0.5 μM,105.78%
same,Cell vitality Mean,[2]; 1 μM,99.02%
same,Cell vitality Mean,[2]; 2.5 μM,96.68%
same,Cell vitality Mean,[2]; 5 μM,95.56%
same,Cell vitality Mean,[2]; 10 μM,99.51%
same,Cell vitality Mean,[2]; 25 μM,99.51%
same,Cell vitality Mean,[2]; 50 μM,108.86%
same,Cell vitality Mean,[2]; 100 μM,96.62%
same,expression of AQP3 gene in keratinocytes compared with the blank control group,[10]; P-value<0.01,significantly promotes
same,AQP3 Increased ratio (compared to BC),[10]; qRT-PCR,34.20%
same,AQP3 gene expression Mean (2^−ΔΔCT),[10]; qRT-PCR,1.345
same,IL-1α Decreased ratio (compared to NC),[4]; 5 μM,67%
same,IL-1α Average concentration,[4]; 5 μM,43.65 pg/mL
same,secretion of IL-1α,[4]; [14],decreases significantly
same,HAS2 Increased ratio (compared to BC),[11],−14.70%
same,HAS2 gene expression Mean (2^−ΔΔCT),[11],0.898
same,expression of TYR gene in melanocytes compared with the blank control group,[12]; P-value<0.01,significantly inhibits
same,TYR Increased ratio (compared to BC),[12]; qRT-PCR,51.8%
same,TYR gene expression Mean (2^−ΔΔCT),[12]; qRT-PCR,0.488
same,CD44 Increased ratio (compared to BC),[13],−21.90%
same,CD44 gene expression Mean (2^−ΔΔCT),[13],0.785
